From patent US20250282799A1, “SUBSTITUTED PYRIDO[4,3-d]PYRIMIDINES AS KRAS MODULATORS” (Alterome Therapeutics, Inc., priority 2023, published 2025) come the findings set out here.

The structures appear in SMILES notation. A value given as a limit tells only on which side of the number the result lay.

This test concerns KRAS G12V dependent lung adenocarcinoma cell line, NCI-H441. The test can be described thus: Cellular pERK (Thr202/Tyr204) FRET/HTRF assay. The note with it: Homo sapiens, NCI-H441, cellular pERK (Thr202/Tyr204) HTRF, NCI-H441 cells. It counts as cell-based. The essentials: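 NCI-H441 cells (KRAS G12V) were seeded and grown overnight at 37 °C, 5% CO2, then treated with compound in DMSO for 1 hr. Lysates were probed with a Eu3+-cryptate/d2 antibody sandwich against pERK1/2 Thr202/Tyr204 and read by HTRF at 665 nm; IC50 from curve fitting.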
On the technique in general: Time-resolved FRET reads energy transfer from a long-lived donor to a nearby acceptor.
Consider `C=C1CN2CCC[C@@]2(COc2nc(N3CCCC[C@@H]4[C@@H](F)[C@@H]43)c3cnc(-c4cc(N)cc(Cl)c4C(F)(F)F)c(F)c3n2)C1` [Example 368, 3-chloro-5-(8-fluoro-4-((1R,7S,8R)-8-fluoro-2-azabicyclo[5.1.0]octan-2-yl)-2-(((S)-2-methylenetetrahydro-1H-pyrrolizin-7a(5H)-yl)methoxy)pyrido[4,3-d]pyrimidin-7-yl)-4-(trifluoromethyl)aniline], for which the IC50 (as a rule, the concentration that inhibits the measured activity by half) lay within 500 to 10000 nM.

The compound `Nc1cc(Cl)c(C(F)(F)F)c(-c2ncc3c(N4CCCC[C@H]5[C@H](F)[C@H]54)nc(OC[C@@]45CCCN4CC(=C(F)F)C5)nc3c2F)c1` [Example 369, 3-chloro-5-(2-(((S)-2-(difluoromethylene)tetrahydro-1H-pyrrolizin-7a(5H)-yl)methoxy)-8-fluoro-4-((1S,7R,8S)-8-fluoro-2-azabicyclo[5.1.0]octan-2-yl)pyrido[4,3-d]pyrimidin-7-yl)-4-(trifluoromethyl)aniline] came in with an IC50 of 50 to 500 nM.

As for `Nc1cc(Cl)c(C(F)(F)F)c(-c2ncc3c(N4CCCC[C@@H]5[C@@H](F)[C@@H]54)nc(OC[C@@]45CCCN4CC(=C(F)F)C5)nc3c2F)c1` [Example 370, 3-chloro-5-(2-(((S)-2-(difluoromethylene)tetrahydro-1H-pyrrolizin-7a(5H)-yl)methoxy)-8-fluoro-4-((1R,7S,8R)-8-fluoro-2-azabicyclo[5.1.0]octan-2-yl)pyrido[4,3-d]pyrimidin-7-yl)-4-(trifluoromethyl)aniline], the IC50 fell in the range of 500 to 10000 nM.

Regarding `Nc1cc(Cl)c(C(F)(F)F)c(-c2ncc3c(N4CCCC[C@H]5[C@H](F)[C@H]54)nc(OC[C@@]45CCCN4C/C(=C/F)C5)nc3c2F)c1` [Example 371, 3-chloro-5-(8-fluoro-4-((1S,7R,8S)-8-fluoro-2-azabicyclo[5.1.0]octan-2-yl)-2-(((S,E)-2-(fluoromethylene)tetrahydro-1H-pyrrolizin-7a(5H)-yl)methoxy)pyrido[4,3-d]pyrimidin-7-yl)-4-(trifluoromethyl)aniline], the IC50 is less than 50 nM.

The compound `Nc1cc(Cl)c(C(F)(F)F)c(-c2ncc3c(N4CCCC[C@@H]5[C@@H](F)[C@@H]54)nc(OC[C@@]45CCCN4C/C(=C/F)C5)nc3c2F)c1` [Example 372, 3-chloro-5-(8-fluoro-4-((1R,7S,8R)-8-fluoro-2-azabicyclo[5.1.0]octan-2-yl)-2-(((S,E)-2-(fluoromethylene)tetrahydro-1H-pyrrolizin-7a(5H)-yl)methoxy)pyrido[4,3-d]pyrimidin-7-yl)-4-(trifluoromethyl)aniline] had an IC50 of 500 to 10000 nM.

On to `Nc1cc(Cl)c(C(F)(F)F)c(-c2ncc3c(N4CCCC[C@H]5[C@H](F)[C@H]54)nc(OC[C@@]45CCCN4C/C(=C\F)C5)nc3c2F)c1` [Example 373, 3-chloro-5-(8-fluoro-4-((1S,7R,8S)-8-fluoro-2-azabicyclo[5.1.0]octan-2-yl)-2-(((S,Z)-2-(fluoromethylene)tetrahydro-1H-pyrrolizin-7a(5H)-yl)methoxy)pyrido[4,3-d]pyrimidin-7-yl)-4-(trifluoromethyl)aniline], for which the IC50 was less than 50 nM.

`Nc1cc(Cl)c(C(F)(F)F)c(-c2ncc3c(N4CCCC[C@@H]5[C@@H](F)[C@@H]54)nc(OC[C@@]45CCCN4C/C(=C\F)C5)nc3c2F)c1` [Example 374, 3-chloro-5-(8-fluoro-4-((1R,7S,8R)-8-fluoro-2-azabicyclo[5.1.0]octan-2-yl)-2-(((S,Z)-2-(fluoromethylene)tetrahydro-1H-pyrrolizin-7a(5H)-yl)methoxy)pyrido[4,3-d]pyrimidin-7-yl)-4-(trifluoromethyl)aniline] yielded an IC50 of 500 to 10000 nM.

Turning to `C#Cc1c(F)ccc2cccc(-c3ncc4c(N5CCOC[C@H]6[C@H](F)[C@H]65)nc(OC[C@]56C/C(=C\F)CN5CCC65CC5)nc4c3F)c12` [Example 375, (1S,7S,8S)-2-(7-(8-Ethynyl-7-fluoronaphthalen-1-yl)-8-fluoro-2-(((R,E)-6′-(fluoromethylene)tetrahydrospiro[cyclopropane-1,1′-pyrrolizin]-7a′(5′H)-yl)methoxy)pyrido[4,3-d]pyrimidin-4-yl)-8-fluoro-5-oxa-2-azabicyclo[5.1.0]octane], the IC50 is less than 50 nM.

In turn, `C#Cc1c(F)ccc2cccc(-c3ncc4c(N5CCOC[C@H]6[C@H](F)[C@H]65)nc(OC[C@]56C/C(=C/F)CN5CCC65CC5)nc4c3F)c12` [Example 376, (1S,7S,8S)-2-(7-(8-Ethynyl-7-fluoronaphthalen-1-yl)-8-fluoro-2-(((R,Z)-6′-(fluoromethylene)tetrahydrospiro[cyclopropane-1,1′-pyrrolizin]-7a′(5′H)-yl)methoxy)pyrido[4,3-d]pyrimidin-4-yl)-8-fluoro-5-oxa-2-azabicyclo[5.1.0]octane] returned a half-maximal inhibitory concentration (IC50) of less than 50 nM.

In the case of `C#Cc1c(F)ccc2cccc(-c3ncc4c(N5CCCC[C@H]6[C@H](F)[C@H]65)nc(OC[C@]56C/C(=C\F)CN5CCC65CC5)nc4c3F)c12` [Example 377, (R,E)-7a′-(((7-(8-ethynyl-7-fluoronaphthalen-1-yl)-8-fluoro-4-((1S,7R,8S)-8-fluoro-2-azabicyclo[5.1.0]octan-2-yl)pyrido[4,3-d]pyrimidin-2-yl)oxy)methyl)-6′-(fluoromethylene)hexahydrospiro[cyclopropane-1,1′-pyrrolizine]], the IC50 is less than 50 nM.

With `Nc1cc(Cl)c(C(F)(F)F)c(-c2ncc3c(N4CCCC[C@H]5[C@H](F)[C@H]54)nc(OC[C@]45C/C(=C\F)CN4CCC54CC4)nc3c2F)c1` [Example 378, 3-chloro-5-(8-fluoro-4-((1S,7R,8S)-8-fluoro-2-azabicyclo[5.1.0]octan-2-yl)-2-(((R,E)-6′-(fluoromethylene)tetrahydrospiro[cyclopropane-1,1′-pyrrolizin]-7a′(5′H)-yl)methoxy)pyrido[4,3-d]pyrimidin-7-yl)-4-(trifluoromethyl)aniline], the 50% inhibitory concentration (IC50) lay within 50 to 500 nM.

`C=C1CN2CCC3(CC3)[C@@]2(COc2nc(N3CCCC[C@H]4[C@H](F)[C@H]43)c3cnc(-c4cc(N)c(F)c(C)c4C(F)(F)F)c(F)c3n2)C1` [Example 379, 2-fluoro-5-(8-fluoro-4-((1S,7R,8S)-8-fluoro-2-azabicyclo[5.1.0]octan-2-yl)-2-(((R)-6′-methylenetetrahydrospiro[cyclopropane-1,1′-pyrrolizin]-7a′(5′H)-yl)methoxy)pyrido[4,3-d]pyrimidin-7-yl)-3-methyl-4-(trifluoromethyl)aniline] displayed a 50% inhibitory concentration (IC50) of 50 to 500 nM.

Consider `Cc1c(F)c(N)cc(-c2ncc3c(N4CCCC[C@H]5[C@H](F)[C@H]54)nc(OC[C@]45C/C(=C\F)CN4CCC54CC4)nc3c2F)c1C(F)(F)F` [Example 380, 2-fluoro-5-(8-fluoro-4-((1S,7R,8S)-8-fluoro-2-azabicyclo[5.1.0]octan-2-yl)-2-(((R,E)-6′-(fluoromethylene)tetrahydrospiro[cyclopropane-1,1′-pyrrolizin]-7a′(5′H)-yl)methoxy)pyrido[4,3-d]pyrimidin-7-yl)-3-methyl-4-(trifluoromethyl)aniline], for which the IC50 is 50 to 500 nM.

In the case of `Cc1c(F)c(N)cc(-c2ncc3c(N4CCCC[C@H]5[C@H](F)[C@H]54)nc(OC[C@]45C/C(=C/F)CN4CCC54CC4)nc3c2F)c1C(F)(F)F` [Example 381, 2-fluoro-5-(8-fluoro-4-((1S,7R,8S)-8-fluoro-2-azabicyclo[5.1.0]octan-2-yl)-2-(((R,Z)-6′-(fluoromethylene)tetrahydrospiro[cyclopropane-1,1′-pyrrolizin]-7a′(5′H)-yl)methoxy)pyrido[4,3-d]pyrimidin-7-yl)-3-methyl-4-(trifluoromethyl)aniline], the IC50 fell in the range of 50 to 500 nM.

Compound `[2H]C([2H])(F)Oc1c(F)ccc2cccc(-c3ncc4c(N5CCCC[C@H]6[C@H](F)[C@H]65)nc(OC[C@]56C/C(=C\F)CN5CCC65CC5)nc4c3F)c12` [Example 382, (R,E)-7a′-(((8-fluoro-7-(7-fluoro-8-(fluoromethoxy-d2)naphthalen-1-yl)-4-((1S,7R,8S)-8-fluoro-2-azabicyclo[5.1.0]octan-2-yl)pyrido[4,3-d]pyrimidin-2-yl)oxy)methyl)-6′-(fluoromethylene)hexahydrospiro [cyclopropane-1,1′-pyrrolizine]] had an IC50 of less than 50 nM.

`[2H]C([2H])(F)Oc1c(F)ccc2cc(N)cc(-c3ncc4c(N5CCCC[C@H]6[C@H](F)[C@H]65)nc(OC[C@]56C/C(=C\F)CN5CCC65CC5)nc4c3F)c12` [Example 383, 6-fluoro-4-(8-fluoro-4-((1S,7R,8S)-8-fluoro-2-azabicyclo[5.1.0]octan-2-yl)-2-(((R,E)-6′-(fluoromethylene)tetrahydrospiro[cyclopropane-1,1′-pyrrolizin]-7a′(5′H)-yl)methoxy)pyrido[4,3-d]pyrimidin-7-yl)-5-(fluoromethoxy-d2)naphthalen-2-amine] came in with an IC50 of less than 50 nM.

In turn, `[2H]C([2H])(F)Oc1c(F)ccc2cccc(-c3ncc4c(N5CCOC[C@H]6[C@H](F)[C@H]65)nc(OC[C@]56CC(=C)CN5CCC65CC5)nc4c3F)c12` [Example 384, (1S,7S,8S)-8-fluoro-2-(8-fluoro-7-(7-fluoro-8-(fluoromethoxy-d2)naphthalen-1-yl)-2-(((R)-6′-methylenetetrahydrospiro[cyclopropane-1,1′-pyrrolizin]-7a′(5′H)-yl)methoxy)pyrido[4,3-d]pyrimidin-4-yl)-5-oxa-2-azabicyclo[5.1.0]octane] yielded an IC50 of less than 50 nM.

With `[2H]C([2H])(F)Oc1c(F)ccc2cccc(-c3ncc4c(N5CCOC[C@H]6[C@H](F)[C@H]65)nc(OC[C@]56C/C(=C\F)CN5CCC65CC5)nc4c3F)c12` [Example 385, (1S,7S,8S)-8-fluoro-2-(8-fluoro-7-(7-fluoro-8-(fluoromethoxy-d2)naphthalen-1-yl)-2-(((R,E)-6′-(fluoromethylene)tetrahydrospiro[cyclopropane-1,1′-pyrrolizin]-7a′(5′H)-yl)methoxy)pyrido[4,3-d]pyrimidin-4-yl)-5-oxa-2-azabicyclo[5.1.0]octane], the IC50 was less than 50 nM.
